Laboratory results from patent publication US11753445B2, “Therapeutic peptides” (COHBAR, INC., priority 2016, dated 2023).
Peptide text beside a SMILES is read from it.

Test system: 3T3-L1 Adipocytes
Assay: Free fatty acid levels in cultured mouse 3T3-L1 adipocytes, isoproterenol stimulated (Example 2)
Type: cell-based
Settings: test peptides 25 μM; isoproterenol 1 nM
In short: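 Release of free fatty acids, read at 540 nm, was stimulated with 1 nM isoproterenol for 3 h in mouse 3T3-L1 adipocytes (12–17 days of differentiation). Cells were pre-exposed to 25 μM peptide for 18–20 h plus 1 h, with peptide kept in during stimulation. Values are background-subtracted and normalised to isoproterenol alone.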

Molecule	Free Fatty Acid Levels in 3T3-L1 Adipocytes Expressed as a Percent of Isoproterenol Control: Percent of Control Value
CC[C@H](C)[C@H](NC(=O)[C@H](Cc1ccc(O)cc1)NC(=O)CNC(=O)[C@H](CCSC)NC(=O)[C@H](CCC(=O)O)NC(=O)[C@H](CCC(N)=O)NC(=O)[C@H](Cc1c[nH]c2ccccc12)NC(=O)[C@H](CCCNC(=N)N)NC(=O)[C@H](CCSC)NC(C)=O)C(=O)N[C@@H](Cc1ccccc1)C(=O)N[C@@H](Cc1ccc(O)cc1)C(=O)N1CCC[C@H]1C(=O)N[C@@H](CCCNC(=N)N)C(=O)N[C@@H](CCCCN)C(=O)NC(CC)(CC)C(=O)N[C@@H](CCCNC(=N)N)C(N)=O [compound 201] (HELM PEPTIDE1{[ac].M.R.W.Q.E.M.G.Y.I.F.Y.P.R.K.[CCC(CC)(N[*:1])C(=O)[*:2]].R.[am]}$$$$V2.0)	92.8%
CC[C@H](C)[C@H](NC(=O)[C@H](Cc1ccc(O)cc1)NC(=O)CNC(=O)[C@H](CCSC)NC(=O)[C@H](CCC(=O)O)NC(=O)[C@H](CCC(N)=O)NC(=O)[C@H](Cc1c[nH]c2ccccc12)NC(=O)[C@H](CCCNC(=N)N)NC(=O)[C@H](CCSC)NC(C)=O)C(=O)N[C@@H](Cc1ccccc1)C(=O)N[C@H](C)C(=O)N1CCC[C@H]1C(=O)N[C@@H](CCCNC(=N)N)C(=O)N[C@@H](CCCCN)C(=O)N[C@@H](CC(C)C)C(=O)N[C@@H](CCCNC(=N)N)C(N)=O [compound 162] (HELM PEPTIDE1{[ac].M.R.W.Q.E.M.G.Y.I.F.[dA].P.R.K.L.R.[am]}$$$$V2.0)	82.4%
Ac-MRWEEMGYIFYPRKLR-NH2 [compound 186]	102.1%
Ac-MRWQEMGYIFYPRRLR-NH2 [compound 131]	78.1%
H-MRWQEMGYEFYPRKLR-OH [compound 175]	50.6%
H-MRWQEMGYIFYPRKLE-OH [compound 182]	36.6%
Ac-MRWQEMGYIFYPEKLR-NH2 [compound 194]	107.2%
H-MGYIFYPRKLR-OH [compound 42]	115.2%
H-MRWQEMGYIEYPRKLR-OH [compound 176]	57.0%
Ac-ARWQEMGYIFYPRKLR-NH2 [compound 22]	78.7%
CC[C@H](C)[C@H](NC(=O)[C@H](Cc1ccc(O)cc1)NC(=O)[C@@H](C)NC(=O)[C@H](CCSC)NC(=O)[C@H](CCC(=O)O)NC(=O)[C@H](CCC(N)=O)NC(=O)[C@H](Cc1c[nH]c2ccccc12)NC(=O)[C@H](CCCNC(=N)N)NC(=O)[C@H](CCSC)NC(C)=O)C(=O)N[C@@H](Cc1ccccc1)C(=O)N[C@@H](Cc1ccc(O)cc1)C(=O)N1CCC[C@H]1C(=O)N[C@@H](CCCNC(=N)N)C(=O)N[C@@H](CCCCN)C(=O)N[C@@H](CC(C)C)C(=O)N[C@@H](CCCNC(=N)N)C(N)=O [compound 88] (HELM PEPTIDE1{[ac].M.R.W.Q.E.M.[dA].Y.I.F.Y.P.R.K.L.R.[am]}$$$$V2.0)	75.1%
Ac-LRWQEMGYIFYPRKR-NH2 [compound 116]	101.8%
Ac-MRWQEMGYEFYPRKLR-NH2 [compound 190]	95.0%
Ac-MRWQEMGYIF-NH2 [compound 64]	90.6%
H-MRWQEMGYIFYERKLR-OH [compound 178]	67.6%
CC[C@H](C)[C@@H]1NC(=O)[C@H](Cc2ccc(O)cc2)NC(=O)CNC(=O)[C@@H](NC(=O)[C@H](CCC(=O)O)NC(=O)[C@H](CCC(N)=O)NC(=O)[C@H](Cc2c[nH]c3ccccc23)NC(=O)[C@H](CCCNC(=N)N)NC(=O)[C@@H](N)CCSC)CSSC[C@@H](C(=O)N[C@@H](CCCNC(=N)N)C(=O)N[C@@H](CCCCN)C(=O)N[C@@H](CC(C)C)C(=O)N[C@@H](CCCNC(=N)N)C(=O)O)NC(=O)[C@H](Cc2ccc(O)cc2)NC(=O)[C@H](Cc2ccccc2)NC1=O [compound 220] (HELM PEPTIDE1{M.R.W.Q.E.C.G.Y.I.F.Y.C.R.K.L.R}$PEPTIDE1,PEPTIDE1,6:R3-12:R3$$$V2.0)	70.5%

Molecule	Free Fatty Acid Levels in 3T3-L1 Adipocytes Expressed as a Percent of Isoproterenol Control: Percent of Control Value
CC[C@H](C)[C@H](NC(=O)[C@H](Cc1ccc(O)cc1)NC(=O)CNC(=O)[C@H](CCSC)NC(=O)[C@H](CCC(=O)O)NC(=O)[C@H](CCC(N)=O)NC(=O)[C@H](Cc1c[nH]c2ccccc12)NC(=O)[C@H](CCCNC(=N)N)NC(=O)[C@@H](N)CCSC)C(=O)N[C@@H](Cc1ccccc1)C(=O)N[C@@H](Cc1ccc(O)cc1)C(=O)N1CCC[C@H]1C(=O)N[C@@H](CCCNC(=N)N)C(=O)N[C@@H](CCCCN)C(=O)N[C@@H](CC(C)C)C(=O)N[C@H](C)C(=O)O [compound 151] (HELM PEPTIDE1{M.R.W.Q.E.M.G.Y.I.F.Y.P.R.K.L.[dA]}$$$$V2.0)	47.9%
CC[C@H](C)[C@H](NC(=O)[C@H](Cc1ccc(O)cc1)NC(=O)CNC(=O)[C@H](CCSC)NC(=O)[C@H](CCC(=O)O)NC(=O)[C@@H](C)NC(=O)[C@H](Cc1c[nH]c2ccccc12)NC(=O)[C@H](CCCNC(=N)N)NC(=O)[C@H](CCSC)NC(C)=O)C(=O)N[C@@H](Cc1ccccc1)C(=O)N[C@@H](Cc1ccc(O)cc1)C(=O)N1CCC[C@H]1C(=O)N[C@@H](CCCNC(=N)N)C(=O)N[C@@H](CCCCN)C(=O)N[C@@H](CC(C)C)C(=O)N[C@@H](CCCNC(=N)N)C(N)=O [compound 155] (HELM PEPTIDE1{[ac].M.R.W.[dA].E.M.G.Y.I.F.Y.P.R.K.L.R.[am]}$$$$V2.0)	90.1%
H-ERWQEAGYIAYPRKLA-OH [compound 239]	66.6%
H-MRWQEMEYIFYPRKLR-OH [compound 173]	43.9%
Ac-MRWQEMGYIFYPKKLR-NH2 [compound 129]	82.5%
H-MRWQEMGYIFYP-OH [compound 48]	57.1%
CC[C@H](C)[C@@H]1NC(=O)[C@H](Cc2ccc(O)cc2)NC(=O)CNC(=O)[C@H](CCSC)NC(=O)[C@H](CCC(=O)O)NC(=O)[C@@H](NC(=O)[C@H](Cc2c[nH]c3ccccc23)NC(=O)[C@H](CCCNC(=N)N)NC(=O)[C@H](CCSC)NC(C)=O)CCC(=O)NCCCC[C@@H](C(=O)N[C@@H](CCCNC(=N)N)C(=O)N[C@@H](CCCCN)C(=O)N[C@@H](CC(C)C)C(=O)N[C@@H](CCCNC(=N)N)C(N)=O)NC(=O)[C@H](Cc2ccc(O)cc2)NC(=O)[C@H](Cc2ccccc2)NC1=O [compound 228] (HELM PEPTIDE1{[ac].M.R.W.E.E.M.G.Y.I.F.Y.K.R.K.L.R.[am]}$PEPTIDE1,PEPTIDE1,5:R3-13:R3$$$V2.0)	69.9%
CC[C@H](C)[C@H](NC(=O)[C@H](Cc1ccc(O)cc1)NC(=O)CNC(=O)[C@H](CCSC)NC(=O)[C@H](CCC(=O)O)NC(=O)[C@H](CCC(N)=O)NC(=O)[C@H](Cc1c[nH]c2ccccc12)NC(=O)[C@H](CCCNC(=N)N)NC(=O)[C@H](CCSC)NC(C)=O)C(=O)N[C@@H](Cc1ccccc1)C(=O)N[C@@H](Cc1ccc(O)cc1)C(=O)N1CCC[C@H]1C(=O)N[C@H](C)C(=O)N[C@@H](CCCCN)C(=O)N[C@@H](CC(C)C)C(=O)N[C@@H](CCCNC(=N)N)C(N)=O [compound 164] (HELM PEPTIDE1{[ac].M.R.W.Q.E.M.G.Y.I.F.Y.P.[dA].K.L.R.[am]}$$$$V2.0)	77.2%
H-MRWQEMGYIFYPRRLR-OH [compound 125]	50.2%
Ac-LRWQEMGYIFYPRKLR-NH2 [compound 108]	101.3%
Ac-MEWQEMGYIFYPRKLR-NH2 [compound 184]	97.1%
CC[C@H](C)[C@H](NC(=O)[C@H](Cc1ccc(O)cc1)NC(=O)CNC(=O)[C@H](CCSC)NC(=O)[C@H](CCC(=O)O)NC(=O)[C@H](CCC(N)=O)NC(=O)[C@H](Cc1c[nH]c2ccccc12)NC(=O)[C@@H](C)NC(=O)[C@H](CCSC)NC(C)=O)C(=O)N[C@@H](Cc1ccccc1)C(=O)N[C@@H](Cc1ccc(O)cc1)C(=O)N1CCC[C@H]1C(=O)N[C@@H](CCCNC(=N)N)C(=O)N[C@@H](CCCCN)C(=O)N[C@@H](CC(C)C)C(=O)N[C@@H](CCCNC(=N)N)C(N)=O [compound 153] (HELM PEPTIDE1{[ac].M.[dA].W.Q.E.M.G.Y.I.F.Y.P.R.K.L.R.[am]}$$$$V2.0)	93.1%
CC[C@H](C)[C@H](NC(=O)[C@H](Cc1ccc(O)cc1)NC(=O)CNC(=O)[C@H](CCC(=O)O)NC(=O)[C@H](CCC(=O)O)NC(=O)[C@H](CCC(N)=O)NC(=O)[C@H](Cc1c[nH]c2ccccc12)NC(=O)[C@H](CCCNC(=N)N)NC(=O)[C@@H](C)N)C(=O)N[C@@H](Cc1ccccc1)C(=O)N[C@@H](Cc1ccc(O)cc1)C(=O)N1CCC[C@H]1C(=O)N[C@@H](CCCNC(=N)N)C(=O)O [compound 232] (HELM PEPTIDE1{[dA].R.W.Q.E.E.G.Y.I.F.Y.P.R}$$$$V2.0)	46.5%
Ac-MRWQEMGYIFYPRKLK-NH2 [compound 130]	85.4%
Ac-MRWNEMGYIFYPRKLR-NH2 [compound 133]	87.5%
